{"source": "patent US10472687B2", "about": "“Methods to identify antituberculosis compounds” (priority 2016, dated 2019)", "key": {"MTB H37Rv wildtype": {"tested_on": "MTB H37Rv wildtype", "assay_type": "cell-based, Mycobacterium tuberculosis"}, "MTB H37Rv lacking Rv0324": {"tested_on": "MTB H37Rv lacking Rv0324", "assay_type": "cell-based, Mycobacterium tuberculosis"}, "MTB H37Rv lacking Rv0880": {"tested_on": "MTB H37Rv lacking Rv0880", "assay_type": "cell-based, Mycobacterium tuberculosis"}, "MTB [1]": {"tested_on": "MTB", "assay_type": "cell-based, Mycobacterium tuberculosis"}, "[2]": {"tested_on": "Rv2323c'::GFP strain (Rv0324-responsive promoter)", "assay_type": "cell-based, Mycobacterium tuberculosis", "conditions": "in the presence of BDQ, FIG. 2"}, "MTB [3]": {"tested_on": "MTB", "conditions": "cited from earlier work"}, "[4]": {"target": "mycobacterial F1Fo ATP synthase (Mycobacterium tuberculosis, UniProt P9WPS1+P9WPV7)", "conditions": "cited from earlier work"}}, "note": "Like-named read-outs stand apart in the source and are kept apart here."}
{"smiles": "COc1nc2ccc(Br)cc2cc1[C@@H](c1ccccc1)[C@@](O)(CCN(C)C)c1cccc2ccccc12", "note": "[bedaquiline]", "values": [{"measurement": "overall growth rate over seven days of treatment", "setting": "MTB H37Rv wildtype", "value": "positive growth rate"}, {"measurement": "greater survival deficiency compared to the wildtype", "setting": "MTB H37Rv lacking Rv0324", "value": 1.8, "unit": "log10"}, {"measurement": "overall growth over seven days of treatment", "setting": "MTB H37Rv lacking Rv0324", "value": "negative overall growth"}, {"measurement": "greater survival deficiency compared to the wildtype", "setting": "MTB H37Rv lacking Rv0880", "value": "1.3 -fold log10"}, {"measurement": "overall growth over seven days of treatment", "setting": "MTB H37Rv lacking Rv0880", "value": "negative overall growth"}, {"measurement": "decrease in Rv0880 expression", "setting": "MTB [1]", "value": "> 2.0", "unit": "absolute log2 fold-change"}, {"measurement": "genes significantly differentially expressed compared to untreated samples", "setting": "MTB [1]", "value": "1,121 genes"}, {"measurement": "increase in Rv0324 expression upon bedaquiline treatment", "setting": "MTB [1]", "value": "> 1.5", "unit": "absolute log2 fold-change"}, {"measurement": "downregulated genes among the differentially expressed genes", "setting": "MTB [1]; 15 μM BDQ, 48 and 96 hours combined", "value": 897, "unit": "genes"}, {"measurement": "GFP fluorescence of the reporter strain", "setting": "[2]", "value": "high level of fluorescence"}, {"measurement": "MTB killing", "setting": "MTB [3]; after 96 hours", "value": "effective MTB killing occurs"}, {"measurement": "bactericidal activity", "setting": "MTB [3]; during the first 4-6 days", "value": "almost no bactericidal activity"}, {"measurement": "bactericidal activity", "setting": "MTB [3]; first 96 hours after BDQ treatment, even at 30 times the MIC", "value": "little bactericidal activity"}, {"measurement": "selectivity for mycobacterial F1Fo ATP synthase", "setting": "[4]", "value": "high selectivity"}]}
